Results: ChEMBL document CHEMBL3991601, “The target landscape of clinical kinase drugs” (Science, 2017)
The source made the active and inactive calls. For most assays here, no stated cut-off is given here; in the data, actives have a measured Kd and inactives only a lower limit.

Experiments:
[1] = target: cAMP-dependent protein kinase catalytic subunit alpha (Homo sapiens, UniProt P17612)
[2] = target: T1, ATP-dependent RNA helicase DDX42 (Homo sapiens, UniProt Q86XP3)
T1 sequence (Q86XP3 whole entry): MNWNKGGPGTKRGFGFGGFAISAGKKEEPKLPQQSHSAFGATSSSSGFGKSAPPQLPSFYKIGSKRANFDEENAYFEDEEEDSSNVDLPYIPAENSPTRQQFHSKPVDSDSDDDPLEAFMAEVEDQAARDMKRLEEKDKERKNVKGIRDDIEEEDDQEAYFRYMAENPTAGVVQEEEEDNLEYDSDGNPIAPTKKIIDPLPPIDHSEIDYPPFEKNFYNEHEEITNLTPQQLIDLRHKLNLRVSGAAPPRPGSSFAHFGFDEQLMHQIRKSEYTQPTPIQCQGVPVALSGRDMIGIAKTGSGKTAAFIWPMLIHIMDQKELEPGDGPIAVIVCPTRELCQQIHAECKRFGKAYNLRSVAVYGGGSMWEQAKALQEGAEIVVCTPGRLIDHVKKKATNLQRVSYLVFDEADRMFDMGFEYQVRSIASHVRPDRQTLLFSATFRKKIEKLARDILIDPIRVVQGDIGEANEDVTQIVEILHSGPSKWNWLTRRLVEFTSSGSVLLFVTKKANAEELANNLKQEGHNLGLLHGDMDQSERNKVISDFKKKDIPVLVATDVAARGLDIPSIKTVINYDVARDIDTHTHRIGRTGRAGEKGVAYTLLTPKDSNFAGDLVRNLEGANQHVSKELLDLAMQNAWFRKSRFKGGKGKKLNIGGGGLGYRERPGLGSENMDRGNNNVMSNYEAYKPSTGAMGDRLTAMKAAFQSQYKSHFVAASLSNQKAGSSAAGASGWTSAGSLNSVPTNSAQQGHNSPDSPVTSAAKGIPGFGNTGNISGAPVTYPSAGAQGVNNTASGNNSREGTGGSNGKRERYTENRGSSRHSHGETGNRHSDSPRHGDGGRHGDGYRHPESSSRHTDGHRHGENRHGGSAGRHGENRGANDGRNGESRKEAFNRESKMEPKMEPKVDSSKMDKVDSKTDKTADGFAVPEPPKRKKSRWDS

[3] = target: T2, Serine/threonine-protein kinase ULK3 (Homo sapiens, UniProt Q6PHR2)
T2 sequence (Q6PHR2 whole entry): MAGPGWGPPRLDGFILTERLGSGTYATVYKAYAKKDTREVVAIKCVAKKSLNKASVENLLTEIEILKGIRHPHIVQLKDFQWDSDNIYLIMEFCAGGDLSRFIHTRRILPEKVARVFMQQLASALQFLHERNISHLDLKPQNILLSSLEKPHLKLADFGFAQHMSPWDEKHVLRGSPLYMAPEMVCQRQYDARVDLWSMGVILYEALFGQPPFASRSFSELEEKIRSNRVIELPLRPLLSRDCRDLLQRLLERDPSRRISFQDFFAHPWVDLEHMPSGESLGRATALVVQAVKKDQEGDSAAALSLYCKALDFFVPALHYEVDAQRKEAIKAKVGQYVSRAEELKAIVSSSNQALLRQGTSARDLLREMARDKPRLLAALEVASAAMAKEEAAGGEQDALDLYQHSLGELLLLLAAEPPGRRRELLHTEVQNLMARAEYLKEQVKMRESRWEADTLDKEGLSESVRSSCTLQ

[4] = target: Ribosomal protein S6 kinase alpha-6 (Homo sapiens, UniProt Q9UK32)
Sequence of Ribosomal protein S6 kinase alpha-6 (Q9UK32 whole entry): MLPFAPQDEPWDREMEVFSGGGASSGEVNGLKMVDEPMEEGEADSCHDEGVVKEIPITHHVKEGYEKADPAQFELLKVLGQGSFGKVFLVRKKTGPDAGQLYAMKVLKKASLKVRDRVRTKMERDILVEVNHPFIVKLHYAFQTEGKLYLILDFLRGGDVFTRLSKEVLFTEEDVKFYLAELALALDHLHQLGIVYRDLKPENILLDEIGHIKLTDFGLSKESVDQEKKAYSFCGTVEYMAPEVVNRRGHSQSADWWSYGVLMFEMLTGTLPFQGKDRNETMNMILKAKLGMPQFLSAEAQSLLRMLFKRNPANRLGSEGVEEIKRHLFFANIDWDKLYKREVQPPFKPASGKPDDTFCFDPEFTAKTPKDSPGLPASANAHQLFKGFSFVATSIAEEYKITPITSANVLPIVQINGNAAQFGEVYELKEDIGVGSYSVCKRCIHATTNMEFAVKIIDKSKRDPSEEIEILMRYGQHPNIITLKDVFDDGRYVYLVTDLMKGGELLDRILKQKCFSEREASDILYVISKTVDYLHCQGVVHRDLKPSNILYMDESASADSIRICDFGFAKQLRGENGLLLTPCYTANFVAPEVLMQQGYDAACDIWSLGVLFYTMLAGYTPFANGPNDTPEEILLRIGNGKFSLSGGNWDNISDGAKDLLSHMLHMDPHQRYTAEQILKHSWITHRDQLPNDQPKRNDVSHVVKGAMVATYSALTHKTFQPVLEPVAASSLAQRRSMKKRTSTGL

[5] = target: T3, Mitogen-activated protein kinase kinase kinase 6 (Homo sapiens, UniProt O95382)
T3 sequence (O95382 whole entry): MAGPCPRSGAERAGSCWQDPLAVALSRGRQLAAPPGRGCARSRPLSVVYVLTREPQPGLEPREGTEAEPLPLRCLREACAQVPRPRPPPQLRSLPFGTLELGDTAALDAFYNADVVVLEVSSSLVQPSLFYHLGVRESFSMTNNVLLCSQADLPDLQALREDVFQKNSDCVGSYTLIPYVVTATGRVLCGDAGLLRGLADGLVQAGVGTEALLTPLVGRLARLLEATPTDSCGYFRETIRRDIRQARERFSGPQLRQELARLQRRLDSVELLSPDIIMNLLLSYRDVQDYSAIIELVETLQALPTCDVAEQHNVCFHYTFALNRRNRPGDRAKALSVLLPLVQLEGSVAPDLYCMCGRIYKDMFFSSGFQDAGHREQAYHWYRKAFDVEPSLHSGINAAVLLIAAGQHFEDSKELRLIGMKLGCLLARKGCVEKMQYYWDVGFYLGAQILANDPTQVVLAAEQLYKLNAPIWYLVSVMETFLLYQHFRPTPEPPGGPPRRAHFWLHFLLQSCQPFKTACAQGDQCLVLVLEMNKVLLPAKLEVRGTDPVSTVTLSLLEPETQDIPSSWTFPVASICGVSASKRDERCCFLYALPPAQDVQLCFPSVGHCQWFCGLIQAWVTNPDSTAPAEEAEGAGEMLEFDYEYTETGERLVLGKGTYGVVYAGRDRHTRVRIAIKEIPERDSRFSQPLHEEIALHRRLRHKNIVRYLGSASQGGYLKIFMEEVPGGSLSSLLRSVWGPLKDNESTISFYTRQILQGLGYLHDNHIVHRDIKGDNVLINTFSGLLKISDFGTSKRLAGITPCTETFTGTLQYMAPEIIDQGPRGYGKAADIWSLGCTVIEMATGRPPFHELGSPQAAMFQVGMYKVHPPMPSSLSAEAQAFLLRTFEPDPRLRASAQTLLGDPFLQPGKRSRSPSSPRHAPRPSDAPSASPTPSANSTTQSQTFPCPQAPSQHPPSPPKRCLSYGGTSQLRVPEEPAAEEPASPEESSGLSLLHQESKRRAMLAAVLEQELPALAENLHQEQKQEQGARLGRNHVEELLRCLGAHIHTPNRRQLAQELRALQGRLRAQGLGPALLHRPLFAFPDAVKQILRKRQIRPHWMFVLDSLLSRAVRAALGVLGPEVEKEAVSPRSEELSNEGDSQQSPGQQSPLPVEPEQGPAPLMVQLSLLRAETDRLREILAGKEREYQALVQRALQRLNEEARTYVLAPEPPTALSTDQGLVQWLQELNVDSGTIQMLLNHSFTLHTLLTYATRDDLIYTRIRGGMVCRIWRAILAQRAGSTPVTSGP

[6] = target: Bone morphogenetic protein receptor type-1B (Homo sapiens, UniProt O00238)
Sequence of Bone morphogenetic protein receptor type-1B (O00238 whole entry, the tested form may be a part): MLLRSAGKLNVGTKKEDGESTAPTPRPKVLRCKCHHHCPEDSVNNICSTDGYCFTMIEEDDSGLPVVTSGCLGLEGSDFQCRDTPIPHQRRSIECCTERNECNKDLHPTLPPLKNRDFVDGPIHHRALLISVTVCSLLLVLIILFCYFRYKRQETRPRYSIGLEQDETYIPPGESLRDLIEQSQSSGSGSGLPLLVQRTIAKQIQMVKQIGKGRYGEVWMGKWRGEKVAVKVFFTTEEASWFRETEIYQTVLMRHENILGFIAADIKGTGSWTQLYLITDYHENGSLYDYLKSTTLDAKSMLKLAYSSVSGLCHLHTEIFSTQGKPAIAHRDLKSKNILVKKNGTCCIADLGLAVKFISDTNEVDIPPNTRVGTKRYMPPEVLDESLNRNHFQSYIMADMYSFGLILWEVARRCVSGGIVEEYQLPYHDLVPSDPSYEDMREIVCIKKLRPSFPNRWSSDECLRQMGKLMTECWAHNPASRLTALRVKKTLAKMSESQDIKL

LIM domain kinase 2 = LIM domain kinase 2 (Homo sapiens, UniProt P53671)
Sequence of LIM domain kinase 2 (P53671 whole entry, the tested form may be a part): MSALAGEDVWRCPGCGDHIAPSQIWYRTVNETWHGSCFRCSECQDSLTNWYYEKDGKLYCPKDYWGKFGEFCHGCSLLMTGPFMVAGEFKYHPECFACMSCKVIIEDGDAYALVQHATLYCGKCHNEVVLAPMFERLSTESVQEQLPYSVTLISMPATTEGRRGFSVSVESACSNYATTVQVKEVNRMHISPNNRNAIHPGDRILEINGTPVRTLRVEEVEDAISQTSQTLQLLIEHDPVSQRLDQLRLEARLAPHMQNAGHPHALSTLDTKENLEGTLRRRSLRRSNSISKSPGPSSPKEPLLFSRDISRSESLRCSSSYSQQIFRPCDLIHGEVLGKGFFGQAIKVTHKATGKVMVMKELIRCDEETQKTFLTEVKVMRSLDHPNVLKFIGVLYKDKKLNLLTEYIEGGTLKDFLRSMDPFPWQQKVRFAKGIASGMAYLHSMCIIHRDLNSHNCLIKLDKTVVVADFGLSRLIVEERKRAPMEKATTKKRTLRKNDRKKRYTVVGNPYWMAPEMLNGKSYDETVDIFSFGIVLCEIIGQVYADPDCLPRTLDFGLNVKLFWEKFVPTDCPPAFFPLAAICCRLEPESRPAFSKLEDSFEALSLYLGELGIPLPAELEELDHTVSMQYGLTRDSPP

Ephrin type-A receptor 2 = Ephrin type-A receptor 2 (Homo sapiens, UniProt P29317)
Sequence of Ephrin type-A receptor 2 (P29317 whole entry): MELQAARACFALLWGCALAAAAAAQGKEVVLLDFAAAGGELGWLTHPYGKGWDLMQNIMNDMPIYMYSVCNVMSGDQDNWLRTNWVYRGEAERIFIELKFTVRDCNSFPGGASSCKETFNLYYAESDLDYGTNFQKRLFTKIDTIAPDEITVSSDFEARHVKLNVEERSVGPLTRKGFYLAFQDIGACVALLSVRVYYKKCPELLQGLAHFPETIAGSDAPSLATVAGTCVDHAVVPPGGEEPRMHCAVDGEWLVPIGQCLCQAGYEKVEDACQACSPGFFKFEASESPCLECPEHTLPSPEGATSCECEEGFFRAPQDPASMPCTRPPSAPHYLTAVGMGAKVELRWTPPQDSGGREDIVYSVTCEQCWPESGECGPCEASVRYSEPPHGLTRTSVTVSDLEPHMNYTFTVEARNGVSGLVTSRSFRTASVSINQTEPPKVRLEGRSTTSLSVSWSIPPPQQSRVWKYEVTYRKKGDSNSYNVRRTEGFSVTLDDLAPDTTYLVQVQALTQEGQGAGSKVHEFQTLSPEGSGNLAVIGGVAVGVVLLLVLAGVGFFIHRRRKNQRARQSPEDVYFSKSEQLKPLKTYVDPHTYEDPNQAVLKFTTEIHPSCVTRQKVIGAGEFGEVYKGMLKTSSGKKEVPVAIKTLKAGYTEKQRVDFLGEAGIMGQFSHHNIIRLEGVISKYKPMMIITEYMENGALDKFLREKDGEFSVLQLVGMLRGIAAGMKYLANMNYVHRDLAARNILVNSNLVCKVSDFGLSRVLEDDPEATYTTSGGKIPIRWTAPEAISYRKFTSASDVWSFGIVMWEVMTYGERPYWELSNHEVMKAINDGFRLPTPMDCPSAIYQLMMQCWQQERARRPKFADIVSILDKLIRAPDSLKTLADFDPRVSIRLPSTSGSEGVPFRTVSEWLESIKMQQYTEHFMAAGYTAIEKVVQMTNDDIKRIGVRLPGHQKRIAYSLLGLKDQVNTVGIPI

[7] = target: Mitogen-activated protein kinase 8 (Homo sapiens, UniProt P45983)
Sequence of Mitogen-activated protein kinase 8 (P45983 whole entry): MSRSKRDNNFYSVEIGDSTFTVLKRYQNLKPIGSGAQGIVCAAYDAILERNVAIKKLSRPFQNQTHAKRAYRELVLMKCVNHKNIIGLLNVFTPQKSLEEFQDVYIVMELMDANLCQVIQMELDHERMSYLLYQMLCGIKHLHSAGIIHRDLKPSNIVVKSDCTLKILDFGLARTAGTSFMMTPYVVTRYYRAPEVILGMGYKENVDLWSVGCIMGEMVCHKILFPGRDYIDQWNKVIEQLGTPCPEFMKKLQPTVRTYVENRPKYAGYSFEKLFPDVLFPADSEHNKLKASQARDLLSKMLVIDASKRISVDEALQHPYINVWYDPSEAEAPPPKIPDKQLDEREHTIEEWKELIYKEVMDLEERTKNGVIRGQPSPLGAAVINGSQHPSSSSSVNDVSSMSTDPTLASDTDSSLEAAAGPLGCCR

CN(c1ncccc1CNc1nc(Nc2ccc3c(c2)CC(=O)N3)ncc1C(F)(F)F)S(C)(=O)=O [PF-00562271]
Kd [1]: > 30 µM (inactive)
Kd [2]: > 30 µM (inactive)
Kd [3]: > 30 µM (inactive)
Kd [4]: > 30 µM (inactive)
Kd [5]: > 30 µM (inactive)
Kd [6]: > 30 µM (inactive)
Kd (LIM domain kinase 2): > 30 µM (inactive)

C=CCn1c(=O)c2cnc(Nc3ccc(N4CCN(C)CC4)cc3)nc2n1-c1cccc(C(C)(C)O)n1 [ADAVOSERTIB]
Kd [1]: > 30 µM (inactive)
Kd [2]: > 30 µM (inactive)
Kd [3]: > 30 µM (inactive)
Kd [4]: > 30 µM (inactive)
Kd [5]: > 30 µM (inactive)
Kd [6]: > 30 µM (inactive)
Kd (Ephrin type-A receptor 2): > 30 µM (inactive)
Kd (LIM domain kinase 2): > 30 µM (inactive)

COc1cc2c(Oc3ccc4[nH]c(C)cc4c3F)ncnc2cc1OCCCN1CCCC1 [CEDIRANIB]
Kd [2]: > 30 µM (inactive)

N#CCNC(=O)c1ccc(-c2ccnc(Nc3ccc(N4CCOCC4)cc3)n2)cc1 [MOMELOTINIB]
Kd [1]: > 30 µM (inactive)
Kd [2]: > 30 µM (inactive)
Kd [4]: > 30 µM (inactive)
Kd [6]: > 30 µM (inactive)
Kd (Ephrin type-A receptor 2): > 30 µM (inactive)
Kd (LIM domain kinase 2): > 30 µM (inactive)

CC1(C)CNc2cc(NC(=O)c3cccnc3NCc3ccncc3)ccc21 [MOTESANIB]
Kd [2]: > 30 µM (inactive)

CN(C)C/C=C/C(=O)Nc1cc2c(Nc3ccc(F)c(Cl)c3)ncnc2cc1O[C@H]1CCOC1 [AFATINIB]
Kd [2]: > 30 µM (inactive)

O[C@H]1CC[C@H](Nc2ncc3nc(Nc4c(F)cc(F)cc4F)n([C@H]4CCOC4)c3n2)CC1 [TANZISERTIB]
Kd [1]: > 30 µM (inactive)
Kd [3]: > 30 µM (inactive)
Kd [4]: > 30 µM (inactive)
Kd [5]: > 30 µM (inactive)
Kd [6]: > 30 µM (inactive)
Kd (Ephrin type-A receptor 2): > 30 µM (inactive)
Kd (LIM domain kinase 2): 1.84 µM (active)

CCc1nc(C(N)=O)c(Nc2ccc(N3CCC(N4CCN(C)CC4)CC3)c(OC)c2)nc1NC1CCOCC1 [GILTERITINIB]
Kd [7]: 0.736 µM (active)
Kd [1]: > 30 µM (inactive)
Kd [3]: 0.006 µM (active)
Kd [4]: > 30 µM (inactive)
Kd [5]: > 30 µM (inactive)
Kd (Ephrin type-A receptor 2): > 30 µM (inactive)
Kd (LIM domain kinase 2): > 30 µM (inactive)

Cn1cnc2c(F)c(Nc3ccc(Br)cc3Cl)c(C(=O)NOCCO)cc21 [SELUMETINIB]
Kd [2]: > 30 µM (inactive)

Cn1c(=O)n(-c2ccc(C(C)(C)C#N)cc2)c2c3cc(-c4cnc5ccccc5c4)ccc3ncc21 [DACTOLISIB]
Kd [2]: > 30 µM (inactive)
Kd [3]: > 30 µM (inactive)
Kd [4]: > 30 µM (inactive)
Kd [5]: > 30 µM (inactive)
Kd (Ephrin type-A receptor 2): > 30 µM (inactive)
Kd (LIM domain kinase 2): > 30 µM (inactive)

COc1cc2c(N3CCN(C(=O)Nc4ccc(OC(C)C)cc4)CC3)ncnc2cc1OCCCN1CCCCC1 [TANDUTINIB]
Kd [2]: > 30 µM (inactive)

O=S(=O)(c1cccc2cnccc12)N1CCCNCC1 [FASUDIL]
Kd [2]: > 30 µM (inactive)
Kd [3]: > 30 µM (inactive)
Kd [4]: > 30 µM (inactive)
Kd [5]: > 30 µM (inactive)
Kd (LIM domain kinase 2): > 30 µM (inactive)

CCN(CCCOc1ccc2c(Nc3cc(CC(=O)Nc4cccc(F)c4)n[nH]3)ncnc2c1)CCOP(=O)(O)O [BARASERTIB]
Kd [2]: > 30 µM (inactive)
Kd [3]: > 30 µM (inactive)
Kd [4]: > 30 µM (inactive)
Kd [5]: > 30 µM (inactive)
Kd [6]: > 30 µM (inactive)
Kd (Ephrin type-A receptor 2): > 30 µM (inactive)
Kd (LIM domain kinase 2): > 30 µM (inactive)

C[C@@]1(C(=O)Nc2ccc(F)nc2)CCCN1c1nc(Nc2cc(C3CC3)n[nH]2)c2cccn2n1 [BMS-754807]
Kd [2]: > 30 µM (inactive)

CN1CCN(c2nc(C3=C(c4c[nH]c5ccccc45)C(=O)NC3=O)c3ccccc3n2)CC1 [SOTRASTAURIN]
Kd [7]: > 30 µM (inactive)
Kd [1]: > 30 µM (inactive)
Kd [3]: > 30 µM (inactive)
Kd [5]: > 30 µM (inactive)
Kd [6]: > 30 µM (inactive)
Kd (Ephrin type-A receptor 2): > 30 µM (inactive)
Kd (LIM domain kinase 2): > 30 µM (inactive)

C[C@]1(O)C[C@@H](c2nc(-c3ccc4ccc(-c5ccccc5)nc4c3)c3c(N)nccn32)C1 [LINSITINIB]
Kd [2]: > 30 µM (inactive)
Kd [3]: > 30 µM (inactive)
Kd [4]: > 30 µM (inactive)
Kd [5]: > 30 µM (inactive)
Kd [6]: > 30 µM (inactive)
Kd (LIM domain kinase 2): > 30 µM (inactive)
